Experimental data: PubChem BioAssay AID624395 (The Scripps Research Institute Molecular Screening Center, 2012)
The source made the active and inactive calls. How the calls were made is not given here.

System: cell-based VP16 transactivation luciferase luminescence
Test: compounds lowering VP16-driven reporter luminescence – cell-based, counter-screen for NR2E3 agonist project, dose response (AID 624395)

SMILES	IC50
c1ccc(C(Cc2nc(-c3ccncc3)no2)c2ccccc2)cc1	4.37 µM
CC(C)c1ccc(-c2csc(NC(=O)c3cccs3)c2C(=O)O)cc1	12.1 µM (inactive)
Cc1cc(NC(=O)CSc2nc3c(sc4ccccc43)c(=O)n2CCCN2CCOCC2)n[nH]1	> 39.8 µM (inactive)
NS(=O)(=O)c1ccc(CCNc2nn3c(-c4cccc(OC(F)(F)F)c4)cnc3s2)cc1	4.66 µM
CCC1(O)C(=O)OCc2c1cc1n(c2=O)Cc2cc3c(N)cccc3nc2-1 (stereo not drawn)	2.33 µM
Cc1cnc(NC(=O)Cc2ccc(Br)cc2)s1	> 39.9 µM (inactive)
COc1ccc(NC2c3ccccc3C(=O)N2Cc2ccccc2Cl)cc1OC (stereo not drawn)	> 39.8 µM (inactive)
Cc1cnc(NC(=O)C2CC(=O)N(c3cccc(Cl)c3)C2)s1 (stereo not drawn)	1.05 µM
Cc1ccc(Cc2cnc(N3C(=N)SC(C)C3=O)s2)cc1 (stereo not drawn)	4.37 µM
Cc1onc(-c2ccccc2Cl)c1C(=O)Nc1nc2c(s1)CCCC2	> 39.8 µM (inactive)
O=c1cc(N2CCN(c3ccccc3)CC2)[nH]c(=O)n1C1CCCCC1	> 39.8 µM (inactive)
CC(C)c1ccc(C(c2c(O)c3ccccc3oc2=O)c2c(O)c3ccccc3oc2=O)cc1	10.3 µM (inactive)
COc1cccc(NC(=O)CSc2nc3ncc(Br)cc3[nH]2)c1	> 39.8 µM (inactive)
Cc1ccc(S(=O)(=O)c2ccc([N+](=O)[O-])o2)cc1	6.32 µM
CN(C)c1ccc(/C=C/c2cc[n+](C)c3ccccc23)cc1	6.66 µM
Cc1cnc(NC(=O)CN2CCN(c3ccccn3)CC2)s1	9.56 µM
O=C(Nc1ccccc1Cl)/C(Cl)=C(\Cl)S(=O)c1ccccc1 (stereo not drawn)	4.1 µM
N#Cc1c(-c2ccccc2)cc(-c2ccccc2)nc1SCCC(=O)O	31.5 µM (inactive)
Cc1noc(C)c1S(=O)(=O)Nc1ccc(C(=O)N2CCN(c3ccc(Cl)cc3)CC2)cc1	7.09 µM
COc1ccc(C)cc1NC(=O)c1nnn(Cc2cccc(C(F)(F)F)c2)c1N	> 39.8 µM (inactive)
CCC(Sc1nc(C)cc(=O)[nH]1)C(=O)Nc1sc2c(c1C#N)CCCC2 (stereo not drawn)	5.06 µM
COc1ccc(NC(=O)c2sc(=O)n(Cc3ccc(F)c(Cl)c3)c2C)cc1OC	20.6 µM (inactive)
COc1cccc2c1C(=O)c1c(O)c3c(c(O)c1C2=O)CC(O)(C(C)=O)CC3OC1CC(N(C)C)C(O)C(C)O1 (stereo not drawn)	3.21 µM
Cc1ccnc(NC(=O)Cc2ccc(-c3ccccc3)cc2)c1	> 39.8 µM (inactive)
C=C1C(=O)OC2CC(C)C3C=CC(=O)C3(C)C(O)C12 (stereo not drawn)	10.5 µM (inactive)
CN(CC(=O)Nc1ccccc1Cl)C(=O)c1cccc(S(=O)(=O)N2CCN(c3ccc(F)cc3)CC2)c1	4.59 µM

SMILES	IC50
O=C(CN1C(=O)C(c2ccc(F)cc2)=NC12CCCC2)Nc1ccc(F)cc1	4.48 µM
COc1ccc(S(=O)(=O)N2CCCCC2)cc1NC(=S)Nc1ccccc1	> 39.8 µM (inactive)
O=C(OC12CC3CC(CC(C3)C1)C2)c1ccc(NCc2cc(O)ccc2O)cc1	11.6 µM (inactive)
Cc1cccc(C(=O)N[C@H](C(=O)Nc2ncc(C)s2)C(C)C)c1	12.1 µM (inactive)
CCC1(OC(=O)CN)C(=O)OCc2c1cc1n(c2=O)Cc2cc3ccccc3nc2-1 (stereo not drawn)	1.31 µM
Cc1ccc(S(=O)(=O)N2[C@@H](c3ccc(Cl)cc3)C(C(=O)O)=CC[C@H]2c2ccc(C(C)C)cc2)cc1	7.56 µM
CC(C)(C)c1ccc(CSc2nc(N)cc(=O)[nH]2)cc1	4.53 µM
Cc1nc2ccc(S(=O)(=O)Nc3cccc(-c4nc5cccnc5s4)c3)cc2s1	7.12 µM
Cc1ccc([C@@H]2CC=C(C(=O)O)[C@H](c3ccc(C(C)(C)C)cc3)N2S(=O)(=O)c2ccc(C)cc2)cc1	7.47 µM
Cc1ccc(CN2CC(C(=O)Nc3ncc(C)s3)CC2=O)cc1 (stereo not drawn)	> 39.8 µM (inactive)
Cc1ccc(OCCOC(=O)c2cc(S(=O)(=O)N3CCCCC3)ccc2N2CCOCC2)cc1	8.95 µM
CCC(C)Nc1nc(-c2ccccn2)nc2ccccc12 (stereo not drawn)	3.93 µM
CC(=O)c1c(C)[nH]c(C(=O)OCC(=O)c2ccc(Br)cc2)c1C	3.45 µM
COc1cc(OC)nc(-n2ncc(Br)c(Br)c2=O)n1	4.91 µM
CC(=O)c1c(O)cc(O)c(C(C)=O)c1O	4.56 µM
O=c1c(Br)ccc(Br)cc1Br	4.8 µM
O=C(C1CCC(CNS(=O)(=O)c2cccc3nsnc23)CC1)N1CC=C(c2ccccc2)CC1 (stereo not drawn)	6.86 µM
COc1ccc(C[C@@H]2OC3(C=CC(=O)C=C3)O[C@H]2Cc2ccc(OC)cc2)cc1	0.845 µM
O=[N+]([O-])c1cc(CN2CCN(c3ccccc3)CC2)c(O)c2ncccc12	> 39.8 µM (inactive)
CCNc1nc2c(c(=O)n(C)c(=O)n2C)n1Cc1ccc(Cl)cc1	6.02 µM
COc1ccc(S(=O)(=O)N2CCCCC2)cc1NC(=S)Nc1cccc(Cl)c1C	> 39.8 µM (inactive)
CCC1(C)Cc2c(sc3[nH]c(=S)n(Cc4ccccc4)c(=O)c23)CO1 (stereo not drawn)	12.1 µM (inactive)
Cc1cccc(/C=N/Nc2cc(N3CCOCC3)nc(N3CCOCC3)n2)c1	5.91 µM
COc1ccc(-n2c(C)cc(C(=O)COC(=O)c3ccc(O)cc3O)c2C)cc1	4.48 µM
COc1ccc2c(c1)/C(=C/c1cnc[nH]1)C(=O)N2	12.7 µM (inactive)
O=C1/C(=C\c2ccc([N+](=O)[O-])cc2)CS(=O)(=O)C/C1=C/c1ccc([N+](=O)[O-])cc1	4.12 µM

SMILES	IC50
Cc1cc(C(=O)Nc2ccc(Cl)cc2)c(C)n1-c1ccccc1	0.00684 µM
CC(C)(C)Nc1nc(-c2ccccn2)nc2ccccc12	4.08 µM
O=C(Nc1nnc(-c2cccs2)o1)c1cc(-c2ccccc2)nc2ccccc12	3.45 µM
CCc1cccc2sc(N3CCN(C(=O)c4ccc([N+](=O)[O-])o4)CC3)nc12	> 13.3 µM (inactive)
Cc1nc2ncnn2c(N2CCN(c3cccc(C(F)(F)F)c3)CC2)c1C	6.46 µM
CCOC(=O)[C@]12Cc3cc(C)ccc3[C@H]1N(C1CCCCC1)C(=O)c1cc(OC)ccc12	4.32 µM
CCC(=O)N1CCCc2cc(S(=O)(=O)N3CCN(c4ccccn4)CC3)ccc21	22.5 µM (inactive)
CCc1ccccc1Nc1nn2c(=O)c3ccc(C(=O)NCc4ccccn4)cc3nc2s1	> 13.3 µM (inactive)
Cc1cnc(NC(=O)CCCc2nc3ccccc3s2)s1	5.07 µM
CCOc1ccc(-c2nc(CSCC(=O)N3CCN(c4cccc(OC)c4)CC3)c(C)o2)cc1	3.02 µM
Nc1nc(-c2ccccn2)nc(N)c1Cc1ccc(Cl)cc1Cl	4.59 µM
O=C(O)c1ccc(S(=O)(=O)/N=C2\C=C(Nc3ccccc3F)C(=O)c3ccccc32)cc1	4.45 µM
CC(C)c1cc2c(c(O)c1O)[C@@]13CCCC(C)(C)C1CC2OC3=O (stereo partly drawn)	> 39.9 µM (inactive)
CCOC(=O)N1CCN(C(=O)c2ccc(S(=O)(=O)Nc3ccc(C)cc3)cc2)CC1	8.62 µM
CCC(=O)NC(c1cccs1)c1cc([N+](=O)[O-])c2cccnc2c1O (stereo not drawn)	3.89 µM
N#C/C(=N\Nc1ccc(Cl)c(Cl)c1)C(=O)C1CC1	1.04 µM
OC[C@@H]1CN(Cc2ccc(-c3ccccc3)cc2)C[C@H](n2cnc3c(NCc4ccncc4)ncnc32)O1	4.44 µM
O=[N+]([O-])c1ccc(O)c2ncccc12	6.36 µM
Brc1ccc(N/N=C(/N=Nc2nn[nH]n2)c2ccccc2)cc1	12.8 µM (inactive)
Cc1ccccc1Cn1nnc(C(=O)Nc2cccc(C)c2C)c1N	18 µM (inactive)
O=C1N/C(=C\c2ccc(O)cc2)C(O)=C1C=NCc1ccccc1	> 39.8 µM (inactive)
Cc1sc2ncnc(NCC(O)c3ccccc3)c2c1C (stereo not drawn)	4.74 µM
Cc1ccc(-c2nc(NC(=O)CSc3nnnn3-c3ccccc3)ns2)cc1	12.1 µM (inactive)
Cc1cc(C(=O)CSc2nc3ccccc3[nH]2)c(C)n1CC1CCCO1 (stereo not drawn)	7.32 µM
COc1ccc(NC(=O)/C(Cl)=C(/Cl)S(=O)(=O)Cc2ccccc2)cn1	5.13 µM
COc1cc2nc(CN3CC=C(c4ccccc4)CC3)[nH]c(=O)c2cc1OC	1.91 µM

SMILES	IC50
CC(Oc1ccc(Br)cc1)c1nc2c3ccccc3nc(=S)n2[nH]1 (stereo not drawn)	4.33 µM
Nc1nc(-c2ccccn2)nc(N)c1Cc1c(F)cccc1Cl	2.69 µM
CCCCCCCCn1c(=O)c(C(=O)OC)c(N)c2ccccc21	3.64 µM
c1ccc(-c2cc(CSc3nc4ccccc4[nH]3)on2)cc1	2.69 µM
COc1ccc(C(=O)c2c(C(F)(F)F)oc3c2C(=O)c2ccccc2C3=O)cc1OC	1.68 µM
S=C(NN=Cc1ccccn1)Nc1ccccn1	4.44 µM
O=S(=O)(NC1CCCC1)c1ccc(S(=O)(=O)N2CCc3ccccc32)cc1	4.59 µM
Cc1c(Cl)ccc2sc(N3CCN(C(=O)C4=COCCO4)CC3)nc12	7 µM
C=C(C(=O)c1ccccc1)C(NC(C)(C)C)c1ccccc1 (stereo not drawn)	5.27 µM
COc1cc2c(OC(C)=O)c3c(c(-c4ccc5c(c4)OCO5)c2cc1OC)C(=O)OC3	3.48 µM
C[C@H]1CCC/C=C/[C@@H]2C[C@H](O)C[C@H]2[C@H](O)[C@H](S(=O)c2ccc(O)cc2)CC(=O)O1 (stereo partly drawn)	3.52 µM
O=[N+]([O-])c1cc(C(F)(F)F)cc([N+](=O)[O-])c1NCCNC(=S)Nc1ccc(Cl)c(Cl)c1	11.5 µM (inactive)
O=C(COC(=O)c1cc([N+](=O)[O-])ccc1N1CCOCC1)Nc1ccc(Cl)cn1	31.8 µM (inactive)
CC(=O)N1c2ccc(S(=O)(=O)N3CCC(C(=O)Nc4cccc(Cl)c4)CC3)cc2CC1C (stereo not drawn)	6.45 µM
CC(=O)NC(c1cccs1)c1cc([N+](=O)[O-])c2cccnc2c1O (stereo not drawn)	5.77 µM
O=C1c2ccccc2C(=O)c2[nH]c(=O)[nH]c21	4.74 µM
Cc1ccnc(NC(=S)N2CCN(c3cccc(C(F)(F)F)c3)CC2)c1	12.3 µM (inactive)
COc1cnc(-c2ccccn2)nc1Sc1ccccc1Cl	4.92 µM
O=C(CSc1nnnn1-c1ccccc1)Nc1nsc(-c2ccc(Cl)cc2)n1	0.833 µM
COc1ccc(CNC(=O)c2c(C)oc3c2C(=O)c2ccccc2C3=O)cc1	1.18 µM
Cc1nn(Cc2cccc(F)c2)c(C)c1NC(=O)c1ccc(COc2ccccc2Cl)cc1	11.7 µM (inactive)
CCCc1cc(=O)n2nc(N3CCC(C(=O)N4CCN(c5ccc(OC)cc5)CC4)CC3)sc2n1	4.44 µM
CCC1(O)C(=O)OCc2c1cc1n(c2=O)Cc2cc3cc(O)ccc3nc2-1 (stereo not drawn)	3.4 µM
Cc1ccc(S(=O)(=O)N(CC(=O)Nc2ccccc2C(=O)O)c2cccc(Cl)c2C)cc1	18.8 µM (inactive)
O=C(Nc1cccc(NC(=O)c2c(F)cccc2F)n1)c1c(F)cccc1F	> 39.8 µM (inactive)
